Values quoted from earlier work as cited in patent publication US20030083469A1, “Allosteric control of nuclear hormone receptors” (The Salk Institute for Biological Studies, priority 1995, published 2003).

Legend:
RXR = settings: Allegretto et al., 1993, Allenby et al.; cited from earlier work
RAR = settings: Allegretto et al., 1993, Allenby et al.; cited from earlier work

CC1=C(/C=C/C(C)=C\C=C\C(C)=C\C(=O)O)C(C)(C)CCC1 [9-cis RA, 9-cis retinoic acid]
binding affinity (RXR): high affinity | binding affinity (RAR): high affinity
